Results as given in patent US11753407B2, “Compounds for treating spinal muscular atrophy” (PTC Therapeutics, Inc., priority 2012, dated 2023).

Experiments:
[1] = tested on: Smn protein in SMA patient fibroblast cells (GM03813); assay: Smn protein assay in cultured cells (SMN HTRF); type: cell-based, human; details: SMA patient fibroblast cells, 48 hours; for EC1.5x for Smn protein expression: 7-point concentration curve, SMN HTRF, concentration producing 1.5 times Smn protein vs DMSO vehicle control; for maximum fold (Fold) increase of Smn protein: 7-point concentration data, fold relative to vehicle control
Summary of the method: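 SMA patient fibroblasts (5,000/well, DMEM-10% FBS) treated 48 h at 37° C with 7-point, 3.16-fold compound series in triplicate; lysates read by SMN HTRF (665/620 nm ratio). Fold Smn increase over DMSO vehicle derived; EC1.5× is concentration giving 1.5-fold Smn, with maximum fold also reported.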

[2] = tested on: SMN2 minigene mRNA (SMN2-A minigene) in HEK293H cells; assay: SMN2 minigene mRNA splicing RT-qPCR assay in cultured cells; type: cell-based, human; details: Homo sapiens, HEK293-H; concentration increasing full length SMN2 mRNA 1.5-fold relative to vehicle-treated cells; HEK293H cells with SMN2-A minigene, 24 hours, 7-point concentration data; read-out: EC1.5x for production of full length SMN2 mRNA
Summary of the method: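 HEK293H cells stably carrying SMN2-A minigene treated with compounds (7-point, 3.16-fold dilutions, duplicates) for 24 h at 37 °C. Full-length exon 7-containing minigene mRNA measured by multiplex RT-qPCR with GAPDH, normalized and expressed relative to vehicle (modified ΔΔCt); EC1.5× is concentration giving 1.5-fold increase.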

| SMILES | melting point | EC1.5x for Smn protein expression [1] | maximum fold (Fold) increase of Smn protein [1] | EC (1.5-fold increase) [2] |
| --- | --- | --- | --- | --- |
| COc1ccc(-c2cc(=O)n3cc(N4CCN[C@@H](C)C4)cc(C)c3n2)cc1F [Compound 327, 2-(3-fluoro-4-methoxyphenyl)-9-methyl-7-[(3S)-3-methylpiperazin-1-yl]-4H-pyrido[1,2-a]pyrimidin-4-one] | 198 to 202 °C | **** (an EC1.5x≤0.3 μM is indicated by four stars (****)) | **** (a fold increase between >1.5 and ≤1.65 is indicated by four stars (****)) | < 0.1 µM |
| COc1ccc(-c2cc(=O)n3cc(N4CCC(N(C)C)CC4)cc(C)c3n2)cc1F [Compound 328, 7-[4-(dimethylamino)piperidin-1-yl]-2-(3-fluoro-4-methoxyphenyl)-9-methyl-4H-pyrido[1,2-a]pyrimidin-4-one] | 141 to 145 °C | – | *** (a fold increase between >1.35 and ≤1.5 is indicated by three stars (***)) | < 0.1 µM |
| COc1ccc(-c2cc(=O)n3cc(C4CCN(C)CC4)cc(C)c3n2)cc1F [Compound 329, 2-(3-fluoro-4-methoxyphenyl)-9-methyl-7-(1-methylpiperidin-4-yl)-4H-pyrido[1,2-a]pyrimidin-4-one] | 198 to 203 °C | ** (an EC1.5× between >1 μM and ≤3 μM is indicated by two stars (**)) | **** (a fold increase between >1.5 and ≤1.65 is indicated by four stars (****)) | < 0.1 µM |
| COc1ccc(-c2cc(=O)n3cc(N4CCC(NC5CC5)CC4)cc(C)c3n2)cc1OC [Compound 330, 7-[4-(cyclopropylamino)piperidin-1-yl]-2-(3,4-dimethoxyphenyl)-9-methyl-4H-pyrido[1,2-a]pyrimidin-4-one] | 141 °C | – | ** (a fold increase between >1.2 and ≤1.35 is indicated by two stars (**)) | 0.1 to 0.3 µM |
| Cc1cn2cc(-c3cc(=O)n4cc(N5CCN(C)[C@@H](C)C5)ccc4n3)cc(Cl)c2n1 [Compound 331, 2-(8-chloro-2-methylimidazo[1,2-a]pyridin-6-yl)-7-[(3S)-3,4-dimethylpiperazin-1-yl]-4H-pyrido[1,2-a]pyrimidin-4-one] | 258 to 262 °C | **** (an EC1.5x≤0.3 μM is indicated by four stars (****)) | ***** (a fold increase >1.65 is indicated by five stars (*****)) | < 0.1 µM |
| COc1ccc(-c2cc(=O)n3cc(N4C[C@@H](C)N[C@@H](C)C4)cc(C)c3n2)cc1OC [Compound 332, 2-(3,4-dimethoxyphenyl)-7-[(3R,5S)-3,5-dimethylpiperazin-1-yl]-9-methyl-4H-pyrido[1,2-a]pyrimidin-4-one] | 225 to 233 °C | – | * (A maximum fold increase of ≤1.2 is indicated by one star (*)) | 0.3 to 1 µM |
| COc1ccc(-c2cc(=O)n3cc(N4CCN(C)[C@H](C)C4)cc(C)c3n2)cc1OC [Compound 333, 2-(3,4-dimethoxyphenyl)-7-[(3R)-3,4-dimethylpiperazin-1-yl]-9-methyl-4H-pyrido[1,2-a]pyrimidin-4-one] | 148 °C | ** (an EC1.5× between >1 μM and ≤3 μM is indicated by two stars (**)) | **** (a fold increase between >1.5 and ≤1.65 is indicated by four stars (****)) | 0.1 to 0.3 µM |
| Cc1cn2nc(-c3cc(=O)n4cc(N5CCCN(C)CC5)ccc4n3)cc2c(C)n1 [Compound 334, 2-(4,6-dimethylpyrazolo[1,5-a]pyrazin-2-yl)-7-(4-methyl-1,4-diazepan-1-yl)-4H-pyrido[1,2-a]pyrimidin-4-one] | 169 to 171 °C | **** (an EC1.5x≤0.3 μM is indicated by four stars (****)) | ***** (a fold increase >1.65 is indicated by five stars (*****)) | < 0.1 µM |
| Cc1cn2nc(-c3cc(=O)n4cc(N5CCN6CCC[C@H]6C5)ccc4n3)cc2c(C)n1 [Compound 336, 2-(4,6-dimethylpyrazolo[1,5-a]pyrazin-2-yl)-7-[(8aS)-hexahydropyrrolo[1,2-a]pyrazin-2(1H)-yl]-4H-pyrido[1,2-a]pyrimidin-4-one] | 215 to 218 °C | **** (an EC1.5x≤0.3 μM is indicated by four stars (****)) | ***** (a fold increase >1.65 is indicated by five stars (*****)) | 0.1 to 0.3 µM |
| Cc1cn2nc(-c3cc(=O)n4cc(N5CCN6CCC[C@@H]6C5)ccc4n3)cc2c(C)n1 [Compound 337, 2-(4,6-dimethylpyrazolo[1,5-a]pyrazin-2-yl)-7-[(8aR)-hexahydropyrrolo[1,2-a]pyrazin-2(1H)-yl]-4H-pyrido[1,2-a]pyrimidin-4-one] | 228 to 230 °C | **** (an EC1.5x≤0.3 μM is indicated by four stars (****)) | ***** (a fold increase >1.65 is indicated by five stars (*****)) | < 0.1 µM |
| CCN1CCN(c2ccc3nc(-c4cc5c(C)nc(C)cn5n4)cc(=O)n3c2)CC1 [Compound 338, 2-(4,6-dimethylpyrazolo[1,5-a]pyrazin-2-yl)-7-(4-ethylpiperazin-1-yl)-4H-pyrido[1,2-a]pyrimidin-4-one] | 251 to 253 °C | **** (an EC1.5x≤0.3 μM is indicated by four stars (****)) | ***** (a fold increase >1.65 is indicated by five stars (*****)) | < 0.1 µM |
| Cc1cn2nc(-c3cc(=O)n4cc(N5CCC(N(C)C)CC5)ccc4n3)cc2c(C)n1 [Compound 339, 7-[4-(dimethylamino)piperidin-1-yl]-2-(4,6-dimethylpyrazolo[1,5-a]pyrazin-2-yl)-4H-pyrido[1,2-a]pyrimidin-4-one] | 208 to 210 °C | **** (an EC1.5x≤0.3 μM is indicated by four stars (****)) | ***** (a fold increase >1.65 is indicated by five stars (*****)) | < 0.1 µM |
| Cc1cn2nc(-c3cc(=O)n4cc(N5CCNC(C)(C)C5)ccc4n3)cc2c(C)n1 [Compound 340, 7-(3,3-dimethylpiperazin-1-yl)-2-(4,6-dimethylpyrazolo[1,5-a]pyrazin-2-yl)-4H-pyrido[1,2-a]pyrimidin-4-one] | 195 to 197 °C | **** (an EC1.5x≤0.3 μM is indicated by four stars (****)) | ***** (a fold increase >1.65 is indicated by five stars (*****)) | < 0.1 µM |
| Cc1cn2nc(-c3cc(=O)n4cc(N5CCN(C6CC6)CC5)ccc4n3)cc2c(C)n1 [Compound 341, 7-(4-cyclopropylpiperazin-1-yl)-2-(4,6-dimethylpyrazolo[1,5-a]pyrazin-2-yl)-4H-pyrido[1,2-a]pyrimidin-4-one] | 189 to 192 °C | *** (an EC1.5× between >0.3 μM and ≤1 μM is indicated by three stars (***)) | ***** (a fold increase >1.65 is indicated by five stars (*****)) | 0.3 to 1 µM |
